Where two headings read alike, the source gives them in different places.
What was measured:
HER2 (ErbB2) = HER2 (ErbB2) (Homo sapiens, UniProt P04626); test: in vitro enzyme activity, HER2 (ErbB2); format: biochemical; conditions: human ErbB2, [γ-33P]ATP, poly(Glu, Tyr) substrate
Description: (§1) The purpose of this assay is to detect the in vitro inhibitory activity of compounds on HER1 (ErbB1), HER2 (ErbB2), and HER4 (ErbB4). The enzymes used in this assay are human ErbB1, ErbB2 and ErbB4. Eurofins Pharma Discovery Service provided the method for activity detection.
(§2) Steps and Method of the Assay (96-Well Plate):
(§3) A buffer solution of the test compounds in a dilution of 5-fold (5 μL), polypeptide substrate poly(Glu, Tyr) (4:1) (2.5 μL), ErbB (4-20 ng, 2.5 μL), MnCl2 (50 mM, 1.25 μL), dH2O (3.75 μL), and [γ-^33P]ATP (10 μL) were added, and incubated at 30° C. for 10 minutes. The reaction was terminated by adding 3% phosphoric acid. 10 μL of the sample was taken and transferred to Filtermate A. The filter disc was washed 3 times with 75 mM phosphoric acid and once with methanol. The filter disc was transferred to a sealed plastic bag and the scintillation mixture (4 mL) was added. The intensity of the emitted photon was detected by a scintillation luminescence counter. The CPM (times/min) of the enzyme sample was compared with the CPM of the internal control sample. The level of photon intensity reflected the degree of the tyrosine kinase activity.

[1] = tested on: subcutaneous xenograft tumor of human gastric cancer NCI-N87 cells; format: in vivo; conditions: for Tumor volume (mm3) (Day 21) / T/C (%) / TGI (%): 3 mg/kg, NCI-N87 xenograft; for Tumor volume (mm3) (Day 21): Mean ± SEM; for T/C (%) / TGI (%): day 21; for body weight of test animals (reference index for drug toxicity): mouse, in vivo
Description: Purpose of the assay: to evaluate the in vivo efficacy of compounds to be tested on subcutaneous xenograft tumor of human gastric cancer NCI-N87 cells in a BALB/c nude mouse model.
Animals of the assay: female BALB/c nude mice, 6-8 weeks old, weighted 18-22 grams; supplier: shanghai sippr bk laboratory animals Ltd.
(§4) Human gastric cancer NCI-N87 cells were cultured in monolayer in vitro. The culture conditions were RPMI-1640 medium plus 10% fetal bovine serum, 100 U/mL penicillin, 100 μg/mL streptomycin and 2 mM glutamine, 37° C., 5% CO2. The passaging was performed by the conventional digestion with trypsin-EDTA twice a week. When the cell saturation was 80%-90%, the cells were collected, counted and inoculated.
0.2 mL (10×10^6 cells) of NCI-N87 cells were inoculated subcutaneously on the right back of each nude mouse (PBS+Matrigel, 1:1). When the average tumor volume reached 145 mm^3, administration to each group was started.
The test compounds were formulated into a 0.3 mg/mL clear solution in the solvents of 10% NMP (N-methylpyrrolidone)+10% ethylene glycol stearate+80% water.
(§5) The assay index is to investigate whether tumor growth is inhibited, delayed or cured. Tumor diameter was measured twice a week with a vernier caliper. The calculation formula of tumor volume is: V=0.5a×b^2, wherein a and b represent the long and short diameters of tumor, respectively.
(§6) The antitumor efficacy of the compounds were evaluated by TGI (%) or relative tumor proliferation rate T/C (%). TGI (%) reflects the tumor growth inhibition rate. TGI (%) is calculated as follows: TGI (%)=[1−(average tumor volume at the end of administration for a certain treatment group−average tumor volume at the beginning of administration for this treatment group)/(average tumor volume at the end of treatment for a solvent control group−average tumor volume at the beginning of administration for this solvent control group)]×control group.
Relative tumor proliferation rate T/C (%): the calculation formula is as follows: T/C %=TRTV/CRTV (TRTV: RTV for the treatment group; CRTV: RTV for the negative control group). Relative tumor volume (RTV) is calculated based on tumor measurement results. The calculation formula is RTV=Vt/V0, wherein V0 is the average tumor volume measured at the beginning of administration (i.e., d0) to each group, Vt is the average tumor volume at a certain measurement, and the data for TRTV and CRTV were taken on the same day.
The tumor weight was measured after the assay is over and the T/C weight percentage was calculated. T weight and C weight represent the tumor weight of the administration group and the vehicle control group, respectively.
(§7) Statistical analysis included the mean and standard error (SEM) of tumor volume at each time point in each group. […] The comparison between two groups was analyzed by T-test, and the comparison among three or more groups was analyzed by one-way ANOVA. […] All data analysis was carried out with SPSS 17.0. p<0.05 was considered a significant difference.

NCI-N87 cell = test: inhibitory activity on cell proliferation (Cell-Titer-Glo), NCI-N87; format: cell-based; conditions: Homo sapiens
Source text: (§8) Purpose of the assay: to detect the inhibitory activity of the test compounds on cell proliferation.
(§9) Principle of the assay: the luciferase in a Cell-Titer-Glo reagent produces oxidized luciferin with luciferin, oxygen and ATP as reaction substrates, and releases energy in the form of light. Since the luciferase reaction requires ATP, the total amount of light generated by the reaction is proportional to the total amount of ATP that reflects cell viability.
(§10) Cell Titer-Glo cell viability assay kit with luminescence (Promega #G7573)
(§11) According to the schematic diagram of the cell seed plate, cells were seeded in a 384- or 96-well plate at a density of 1000 cells per well and 25 μL per well, and 25 μL of PBS was added to the wells near edge of the place where no cells were seeded.
(§12) (1) The stock solution of the compounds has a concentration of 10 mM, and the compounds were diluted with DMSO to an initial concentration of 4 mM. The compounds were added to the plate with stock solution of compounds, 9 μL per well.
(§13) (2) The compounds were diluted with an ECHO liquid workstation, where 125 nL of compounds were added to each well of the cell plate, 125 nL of DMSO was added to each of the cell well in columns 2 and 23, and 125 nL of DMSO was added to each PBS well in columns 1 and 24.
(§14) 2.3 After addition of the compounds, the cell plate was centrifuged at 1000 rpm for 1 min, and then placed in a 37° C., 5% CO2 incubator for incubation for 3 days.
(§15) The cell plate was taken out from the incubator and equilibrated at room temperature for 30 minutes. 25 μL of Cell-Titer-Glo reagent was added to each well, shaken for one minute to allow well mixed, and centrifuged at 1000 rpm for 1 minute. After 10 minutes, the plate was read on PerkinElmer Envision, and the […] reading time was set to 0.2 second.

HER1 (ErbB1) = HER1 (ErbB1) (Homo sapiens, UniProt P00533); test: in vitro enzyme activity, HER1 (ErbB1); format: biochemical; conditions: human ErbB1, [γ-33P]ATP, poly(Glu, Tyr) substrate
Description: as §1, §2, §3

HER4 (ErbB4) = HER4 (ErbB4) (Homo sapiens, UniProt Q15303); test: in vitro enzyme activity, HER4 (ErbB4); format: biochemical; conditions: human ErbB4, [γ-33P]ATP, poly(Glu, Tyr) substrate
Description: as §1, §2, §3

BT-474 cell = test: inhibitory activity on cell proliferation (Cell-Titer-Glo), BT-474; format: cell-based; conditions: Homo sapiens
Source text: as §8, §9, §10, §11, §12, §13, §14, §15

[2] = tested on: subcutaneous xenograft tumor of human gastric cancer NCI-N87 cells; test: Assay Example 5: in vivo pharmacodynamics, NCI-N87 xenograft; set-up: species or system BALB/c nude mouse; conditions: 0.5 mg/kg
Description: Purpose of the assay: to evaluate the in vivo efficacy of test compounds disclosed herein on subcutaneous xenograft tumor of human gastric cancer NCI-N87 cells in a BALB/c nude mouse model.
Animals of the assay: female BALB/c nude mice, 6-8 weeks old, weighing 18-22 grams; supplier: shanghai sippr bk laboratory animals Ltd.
as §4, with “streptomycin,” for “streptomycin and 2 mM glutamine,”, “by” for “by the”
0.2 mL (10×10^6) of NCI-N87 cells (PBS+Matrigel, 1:1) were inoculated subcutaneously on the right back of each mouse. When the average tumor volume reached 156 mm^3, administration to each group was started.
The test compounds were formulated into a 0.05 mg/mL clear solution in the solvents of 10% NMP (N-methylpyrrolidone)+10% ethylene glycol stearate+80% water.
as §5
as §6, with “or” for “or relative”, “group)]×100%.” for “group)]×control group.”
Tumor proliferation rate T/C (%): the calculation formula is as follows: T/C (%)=average tumor volume at the end of administration for a certain treatment group/average tumor volume at the end of treatment for the solvent control group×100%.
as §7, with “group (See Table 5-1 for specific data).” for “group.”

[3] = Assay Example 7: pharmacokinetics in mice; format: in vivo; conditions: mouse, female BALB/c mice, plasma, dose not given
Description: Purpose of the assay: this assay aims to investigate in vivo plasma pharmacokinetics of the example compounds disclosed herein and the reference compound in female BALB/c mice after the single intravenous injection and intragastric administration thereof.
Animals of the assay: female BALB/c nude mice, 7-9 weeks old, weighted 17-23 grams; supplier: shanghai sippr bk laboratory animals Ltd.
Sample collection: at each time point, a 0.03 mL blood sample was collected from the saphenous vein of the test animal by puncture, and the actual blood collection time was recorded. All blood samples were added into commercial EDTA-K2 anticoagulation tubes with a specification of 1.5 mL (the supplier was Jiangsu KANGJIAN Medical Apparatus Co., Ltd.). Within half an hour after the blood sample was collected, the blood sample was centrifuged at 3000 g at 4° C. for 10 minutes, and the supernatant plasma was drawn, quickly placed in dry ice, and stored in a refrigerator at −80° C. for LC-MS/MS analysis.
Data analysis: Plasma concentrations were processed using a non-compartmental model of WinNonlin™ Version6.3 (Pharsight, MountainView, Calif.) pharmacokinetic software, and pharmacokinetic parameters Cmax, Tmax, T1/2, and AUC0-last were calculated using a linear log trapezoid method.

[4] = NCI-N87, footnote d: initial dilution concentration of compounds is 10 μM
[5] = BT-474, footnote d: initial dilution concentration of compounds is 10 μM

HER4 (ErbB4), sequence (Q15303 26-1308): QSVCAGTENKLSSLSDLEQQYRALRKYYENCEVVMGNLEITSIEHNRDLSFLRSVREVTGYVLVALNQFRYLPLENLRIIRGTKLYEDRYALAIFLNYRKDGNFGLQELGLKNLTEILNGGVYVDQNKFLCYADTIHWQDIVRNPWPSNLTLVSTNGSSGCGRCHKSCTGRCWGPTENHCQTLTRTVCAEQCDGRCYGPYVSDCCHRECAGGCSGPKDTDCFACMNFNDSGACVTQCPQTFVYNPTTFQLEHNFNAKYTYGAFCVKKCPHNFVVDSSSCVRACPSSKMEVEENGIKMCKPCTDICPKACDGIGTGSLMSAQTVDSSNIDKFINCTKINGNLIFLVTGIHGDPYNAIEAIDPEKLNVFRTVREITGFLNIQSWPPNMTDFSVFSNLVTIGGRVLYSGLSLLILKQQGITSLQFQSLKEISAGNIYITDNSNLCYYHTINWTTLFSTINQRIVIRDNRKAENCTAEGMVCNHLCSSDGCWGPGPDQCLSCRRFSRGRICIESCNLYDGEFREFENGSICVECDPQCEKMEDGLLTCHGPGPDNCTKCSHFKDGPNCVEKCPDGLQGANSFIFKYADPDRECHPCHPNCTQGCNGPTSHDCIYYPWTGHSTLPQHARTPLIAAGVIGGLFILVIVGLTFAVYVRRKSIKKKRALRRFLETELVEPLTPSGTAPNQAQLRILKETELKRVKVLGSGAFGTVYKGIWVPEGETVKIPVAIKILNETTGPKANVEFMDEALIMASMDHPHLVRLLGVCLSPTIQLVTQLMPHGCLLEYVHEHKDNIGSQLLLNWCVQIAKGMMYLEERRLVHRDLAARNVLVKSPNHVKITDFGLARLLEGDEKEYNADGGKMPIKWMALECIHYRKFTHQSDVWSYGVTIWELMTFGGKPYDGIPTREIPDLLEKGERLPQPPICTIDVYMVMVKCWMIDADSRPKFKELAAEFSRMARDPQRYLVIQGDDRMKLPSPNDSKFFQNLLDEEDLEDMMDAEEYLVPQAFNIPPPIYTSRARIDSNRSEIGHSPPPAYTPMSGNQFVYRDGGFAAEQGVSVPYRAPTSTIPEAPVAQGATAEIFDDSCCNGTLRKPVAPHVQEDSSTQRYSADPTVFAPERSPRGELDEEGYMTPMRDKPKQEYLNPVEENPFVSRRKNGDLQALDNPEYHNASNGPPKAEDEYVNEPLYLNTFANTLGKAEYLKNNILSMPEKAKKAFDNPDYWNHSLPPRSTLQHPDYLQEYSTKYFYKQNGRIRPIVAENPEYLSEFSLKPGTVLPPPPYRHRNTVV
HER1 (ErbB1), sequence (P00533 25-1210): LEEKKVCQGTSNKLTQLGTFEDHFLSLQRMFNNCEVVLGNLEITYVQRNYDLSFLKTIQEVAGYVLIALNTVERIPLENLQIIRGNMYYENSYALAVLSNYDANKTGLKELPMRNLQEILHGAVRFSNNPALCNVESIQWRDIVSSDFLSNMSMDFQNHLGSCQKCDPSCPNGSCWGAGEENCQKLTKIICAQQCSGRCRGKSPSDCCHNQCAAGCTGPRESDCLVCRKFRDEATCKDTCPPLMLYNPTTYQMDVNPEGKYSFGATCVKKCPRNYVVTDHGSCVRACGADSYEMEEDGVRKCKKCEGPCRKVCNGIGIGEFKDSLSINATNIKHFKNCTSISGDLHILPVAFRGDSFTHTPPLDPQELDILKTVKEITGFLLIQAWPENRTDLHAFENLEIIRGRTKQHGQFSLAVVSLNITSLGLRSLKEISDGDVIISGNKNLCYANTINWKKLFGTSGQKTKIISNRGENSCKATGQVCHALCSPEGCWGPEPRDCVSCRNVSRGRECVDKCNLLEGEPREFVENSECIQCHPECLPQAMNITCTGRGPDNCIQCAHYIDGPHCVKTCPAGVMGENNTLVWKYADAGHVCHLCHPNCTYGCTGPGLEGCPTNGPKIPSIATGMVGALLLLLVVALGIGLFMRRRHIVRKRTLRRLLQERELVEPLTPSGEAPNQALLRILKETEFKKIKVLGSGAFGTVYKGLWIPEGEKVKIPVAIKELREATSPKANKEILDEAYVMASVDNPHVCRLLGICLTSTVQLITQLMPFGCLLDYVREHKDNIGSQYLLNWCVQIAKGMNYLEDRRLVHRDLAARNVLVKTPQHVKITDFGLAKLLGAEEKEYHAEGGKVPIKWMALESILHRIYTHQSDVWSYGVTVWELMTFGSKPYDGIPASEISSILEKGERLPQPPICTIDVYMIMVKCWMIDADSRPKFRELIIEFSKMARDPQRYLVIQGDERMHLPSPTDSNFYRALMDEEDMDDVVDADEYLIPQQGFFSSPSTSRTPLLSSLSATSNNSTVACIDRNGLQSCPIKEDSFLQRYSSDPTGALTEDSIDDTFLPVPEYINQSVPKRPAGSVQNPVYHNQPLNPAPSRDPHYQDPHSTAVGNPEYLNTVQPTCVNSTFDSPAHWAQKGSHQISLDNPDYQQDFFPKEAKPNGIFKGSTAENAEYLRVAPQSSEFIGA
HER2 (ErbB2), sequence (P04626 23-1255): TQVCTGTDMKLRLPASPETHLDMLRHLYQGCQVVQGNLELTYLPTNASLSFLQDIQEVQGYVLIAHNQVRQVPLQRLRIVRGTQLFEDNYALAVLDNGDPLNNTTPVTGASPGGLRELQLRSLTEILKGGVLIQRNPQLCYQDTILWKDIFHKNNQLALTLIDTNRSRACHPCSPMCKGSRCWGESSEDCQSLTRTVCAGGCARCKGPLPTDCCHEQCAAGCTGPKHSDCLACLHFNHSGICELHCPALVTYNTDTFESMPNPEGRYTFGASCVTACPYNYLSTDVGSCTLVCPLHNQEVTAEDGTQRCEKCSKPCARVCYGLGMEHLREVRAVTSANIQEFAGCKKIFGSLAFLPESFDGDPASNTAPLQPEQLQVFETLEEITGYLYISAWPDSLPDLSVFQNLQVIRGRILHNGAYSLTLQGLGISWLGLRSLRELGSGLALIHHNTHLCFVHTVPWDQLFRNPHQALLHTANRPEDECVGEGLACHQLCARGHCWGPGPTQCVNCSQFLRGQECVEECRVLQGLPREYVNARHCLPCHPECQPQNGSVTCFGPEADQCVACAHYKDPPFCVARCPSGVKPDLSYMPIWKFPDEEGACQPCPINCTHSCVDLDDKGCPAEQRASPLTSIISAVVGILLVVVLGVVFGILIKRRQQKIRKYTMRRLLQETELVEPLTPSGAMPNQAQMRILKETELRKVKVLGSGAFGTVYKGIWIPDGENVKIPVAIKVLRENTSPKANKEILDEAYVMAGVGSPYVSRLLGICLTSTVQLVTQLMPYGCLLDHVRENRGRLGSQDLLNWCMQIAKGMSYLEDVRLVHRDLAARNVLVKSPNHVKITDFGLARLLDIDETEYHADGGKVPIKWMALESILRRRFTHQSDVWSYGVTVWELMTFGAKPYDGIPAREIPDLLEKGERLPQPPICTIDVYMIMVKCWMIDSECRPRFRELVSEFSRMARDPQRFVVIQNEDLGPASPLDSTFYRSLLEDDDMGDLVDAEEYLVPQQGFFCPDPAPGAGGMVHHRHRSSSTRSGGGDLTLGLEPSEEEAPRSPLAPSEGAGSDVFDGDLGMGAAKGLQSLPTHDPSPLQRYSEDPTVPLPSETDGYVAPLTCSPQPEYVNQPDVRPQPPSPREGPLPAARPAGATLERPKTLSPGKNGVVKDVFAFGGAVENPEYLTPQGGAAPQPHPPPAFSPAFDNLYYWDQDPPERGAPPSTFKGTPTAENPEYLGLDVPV

For `C=CC(=O)N1[C@@H]2CC[C@H]1C[C@@H](Oc1cc3c(Nc4ccc(Cl)c(Cl)c4F)ncnc3cc1OC)C2` [Example 7], the IC50 (HER2 (ErbB2)) was 69 nM, the “Tumor volume (mm3) (Day 21)” value [1] was 188 ± 9 mm3 and the “T/C (%)” value [1] was 26.10%. For the same compound, the “TGI (%)” value [1] was 92.63%, the “body weight of test animals (reference index for drug toxicity)” value [1] was “significantly better than that of the control compound Poziotinib” and the IC50 (NCI-N87 cell; [4]) was 1.5 nM. For the same compound, the IC50 (HER1 (ErbB1)) was 40 nM and the IC50 (HER4 (ErbB4)) was 61 nM.

In the case of `C=CC(=O)N1C[C@H]2C[C@@H](C1)[C@H]2Oc1cc2c(Nc3ccc(Cl)c(Cl)c3F)ncnc2cc1OCCO` [Example 13], the IC50 (HER2 (ErbB2)) is reported as 8 nM, the IC50 (NCI-N87 cell; [4]) is reported as 1.6 nM and the IC50 (HER1 (ErbB1)) is reported as 5 nM. For the same compound, the IC50 (BT-474 cell; [5]) was 2 nM and the IC50 (HER4 (ErbB4)) was 7 nM.

For `C=CC(=O)N1CCC(Nc2cc3c(Nc4ccc(F)c(Cl)c4)ncnc3cc2OC)CC1` [Control compound 2], the “Tumor volume (mm^3) (Day 21)” value ([2]; NCI-N87 xenograft, Mean + SEM) was 541 ± 88 mm^3, the “T/C (%)” value ([2]; day 21) was 89.35% and the “TGI (%)” value ([2]; day 21) was 18.83%. It also gave a Tmax ([3]; oral) of 2 h, a half-life ([3]; oral) of 1.5 h and an AUC(0-t) ([3]; oral plasma exposure) of 82 µM·h. For the same compound, the Cmax ([3]; oral plasma exposure) was 15.3 µM.

In the case of `C=CC(=O)N1C[C@H]2C[C@@H](C1)[C@H]2Oc1cc2c(Nc3ccc(Cl)c(Cl)c3F)ncnc2cc1OCCCN1CCOCC1` [Example 18], the IC50 (HER2 (ErbB2)) is reported as 12 nM, the IC50 (NCI-N87 cell; [4]) is reported as 1.3 nM and the IC50 (HER1 (ErbB1)) is reported as 9 nM. It also gave an IC50 (BT-474 cell; [5]) of 2.4 nM and an IC50 (HER4 (ErbB4)) of 5 nM.

Work on `C=CC(=O)N1[C@@H]2CC[C@H]1C[C@H](Oc1cc3c(Nc4ccc(Cl)c(Cl)c4F)ncnc3cc1OCC)C2` [Example 21] yielded an IC50 (HER2 (ErbB2)) of 5 nM, an IC50 (NCI-N87 cell; NCI-N87, 72 h, incubation for 3 days, Cell-Titer-Glo) of 0.35 nM and an IC50 (HER1 (ErbB1)) of 12 nM. It also gave an IC50 (BT-474 cell; BT-474, 72 h, incubation for 3 days, Cell-Titer-Glo) of 0.46 nM and an IC50 (HER4 (ErbB4)) of 3 nM.

With `C=CC(=O)N1C[C@H]2C[C@@H](C1)[C@H]2Oc1cc2c(Nc3ccc(Cl)c(Cl)c3F)ncnc2cc1OC` [Example 1] the IC50 (HER2 (ErbB2)) was 3 nM, the “Tumor volume (mm3) (Day 21)” value [1] was 122 ± 11 mm3 and the “T/C (%)” value [1] was 16.62%. The “TGI (%)” value [1] was 103.98%, the “body weight of test animals (reference index for drug toxicity)” value [1] was “significantly better than that of the control compound Poziotinib” and the IC50 (NCI-N87 cell; [4]) was < 1.5 nM. It also gave an IC50 (HER1 (ErbB1)) of 2 nM and an IC50 (HER4 (ErbB4)) of 10 nM.

`C=CC(=O)N1C[C@H]2C[C@@H](C1)[C@H]2Nc1cc2c(Nc3ccc(Cl)c(Cl)c3F)ncnc2cc1OC` [Example 9] gave an IC50 (HER2 (ErbB2)) of 13 nM, an IC50 (NCI-N87 cell; [4]) of 0.9 nM and an IC50 (HER1 (ErbB1)) of 9 nM. For the same compound, the IC50 (BT-474 cell; [5]) was 2.1 nM and the IC50 (HER4 (ErbB4)) was 8 nM.
